The text below walks through data of patent US20230150974A1 (Foghorn Therapeutics Inc., priority 2020, published 2023).

One assay has as its target T1, HiBit-BRG1 (Homo sapiens, UniProt P51532).
T1 construct: expressed in transfected cells
In words: HiBit-BRG1 cell-based degradation assay (Nano-Glo HiBiT Lytic Detection). Particulars: HeLa cells expressing HiBit-BRG1 and LgBit, 24 h; for DC50: read-out: BRG1 HiBit Degradation IC50; for Dmax: read-out: BRG1 HiBit Degradation Maximum (%). A digest of the protocol:
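Stable HeLa line co-expressing HiBit-BRG1 and LgBit, 5000 cells/well, treated 24 h in a tissue culture incubator. Lysed with Nano-Glo HiBiT lytic reagent, luminescence read. % degradation normalized to DMSO (high control) and 2 μM reference BRM/BRG1 degrader (low control).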
On the technique in general: HiBiT is a short tag that completes a luciferase, so light tracks the accessible tagged protein.

Another assay deals with T2, HiBiT-BRM (Homo sapiens, UniProt P51531).
T2 construct: expressed in transfected cells
Kind of assay: HiBiT-BRM cell-based degradation assay (Nano-Glo HiBiT Lytic Detection). Particulars: HeLa cells expressing HiBiT-BRM, 24 h; for DC50: read-out: BRM HiBit Degradation IC50. The essentials: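 HeLa cells stably expressing HiBiT-tagged BRM were treated for 24 h, then lysed with LgBiT-containing Nano-Glo reagent and luminescence read. % degradation scaled between DMSO (high control) and 2 μM reference BRM/BRG1 degrader (low control).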

T2 sequence (P51531 whole entry): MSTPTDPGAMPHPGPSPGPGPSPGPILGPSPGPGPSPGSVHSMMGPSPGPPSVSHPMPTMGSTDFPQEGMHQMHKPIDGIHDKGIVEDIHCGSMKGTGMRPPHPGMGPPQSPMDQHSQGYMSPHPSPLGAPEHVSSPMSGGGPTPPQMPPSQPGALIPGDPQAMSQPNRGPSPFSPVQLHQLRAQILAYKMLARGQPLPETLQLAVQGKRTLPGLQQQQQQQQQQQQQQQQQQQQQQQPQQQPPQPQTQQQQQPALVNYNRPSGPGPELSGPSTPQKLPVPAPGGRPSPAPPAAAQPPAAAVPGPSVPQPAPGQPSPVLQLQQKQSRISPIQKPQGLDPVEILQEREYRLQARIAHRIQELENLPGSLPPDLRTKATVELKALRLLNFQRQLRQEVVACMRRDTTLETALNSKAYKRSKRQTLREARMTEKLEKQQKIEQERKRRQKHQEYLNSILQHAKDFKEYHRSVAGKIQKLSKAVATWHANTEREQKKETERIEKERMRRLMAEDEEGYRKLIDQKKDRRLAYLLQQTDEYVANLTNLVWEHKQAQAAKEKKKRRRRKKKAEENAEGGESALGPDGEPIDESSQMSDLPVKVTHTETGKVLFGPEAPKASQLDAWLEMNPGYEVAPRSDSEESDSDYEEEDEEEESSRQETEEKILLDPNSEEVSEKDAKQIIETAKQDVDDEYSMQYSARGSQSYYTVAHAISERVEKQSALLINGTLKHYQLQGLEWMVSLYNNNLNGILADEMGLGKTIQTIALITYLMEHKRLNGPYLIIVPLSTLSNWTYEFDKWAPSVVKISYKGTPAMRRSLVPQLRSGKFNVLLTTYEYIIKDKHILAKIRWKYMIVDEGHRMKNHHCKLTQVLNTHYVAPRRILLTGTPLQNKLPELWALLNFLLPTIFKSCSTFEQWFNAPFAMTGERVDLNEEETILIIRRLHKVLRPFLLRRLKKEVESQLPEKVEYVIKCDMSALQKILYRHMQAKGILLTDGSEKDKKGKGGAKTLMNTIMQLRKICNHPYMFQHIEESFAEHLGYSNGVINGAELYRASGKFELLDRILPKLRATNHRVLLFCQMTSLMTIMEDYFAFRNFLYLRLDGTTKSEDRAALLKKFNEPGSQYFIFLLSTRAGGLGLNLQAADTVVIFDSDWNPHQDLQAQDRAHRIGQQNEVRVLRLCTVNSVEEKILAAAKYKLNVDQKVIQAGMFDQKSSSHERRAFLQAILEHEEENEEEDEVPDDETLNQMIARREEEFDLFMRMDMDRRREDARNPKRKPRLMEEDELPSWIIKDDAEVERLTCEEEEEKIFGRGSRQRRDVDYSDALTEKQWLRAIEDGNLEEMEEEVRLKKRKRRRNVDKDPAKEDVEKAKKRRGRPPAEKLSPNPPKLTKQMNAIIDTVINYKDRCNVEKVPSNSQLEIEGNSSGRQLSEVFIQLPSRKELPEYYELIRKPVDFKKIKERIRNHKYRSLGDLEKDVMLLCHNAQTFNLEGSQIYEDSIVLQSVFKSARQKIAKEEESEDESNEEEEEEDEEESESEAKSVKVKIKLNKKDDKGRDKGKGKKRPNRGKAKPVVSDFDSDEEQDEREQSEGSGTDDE
T1 sequence (P51532 whole entry): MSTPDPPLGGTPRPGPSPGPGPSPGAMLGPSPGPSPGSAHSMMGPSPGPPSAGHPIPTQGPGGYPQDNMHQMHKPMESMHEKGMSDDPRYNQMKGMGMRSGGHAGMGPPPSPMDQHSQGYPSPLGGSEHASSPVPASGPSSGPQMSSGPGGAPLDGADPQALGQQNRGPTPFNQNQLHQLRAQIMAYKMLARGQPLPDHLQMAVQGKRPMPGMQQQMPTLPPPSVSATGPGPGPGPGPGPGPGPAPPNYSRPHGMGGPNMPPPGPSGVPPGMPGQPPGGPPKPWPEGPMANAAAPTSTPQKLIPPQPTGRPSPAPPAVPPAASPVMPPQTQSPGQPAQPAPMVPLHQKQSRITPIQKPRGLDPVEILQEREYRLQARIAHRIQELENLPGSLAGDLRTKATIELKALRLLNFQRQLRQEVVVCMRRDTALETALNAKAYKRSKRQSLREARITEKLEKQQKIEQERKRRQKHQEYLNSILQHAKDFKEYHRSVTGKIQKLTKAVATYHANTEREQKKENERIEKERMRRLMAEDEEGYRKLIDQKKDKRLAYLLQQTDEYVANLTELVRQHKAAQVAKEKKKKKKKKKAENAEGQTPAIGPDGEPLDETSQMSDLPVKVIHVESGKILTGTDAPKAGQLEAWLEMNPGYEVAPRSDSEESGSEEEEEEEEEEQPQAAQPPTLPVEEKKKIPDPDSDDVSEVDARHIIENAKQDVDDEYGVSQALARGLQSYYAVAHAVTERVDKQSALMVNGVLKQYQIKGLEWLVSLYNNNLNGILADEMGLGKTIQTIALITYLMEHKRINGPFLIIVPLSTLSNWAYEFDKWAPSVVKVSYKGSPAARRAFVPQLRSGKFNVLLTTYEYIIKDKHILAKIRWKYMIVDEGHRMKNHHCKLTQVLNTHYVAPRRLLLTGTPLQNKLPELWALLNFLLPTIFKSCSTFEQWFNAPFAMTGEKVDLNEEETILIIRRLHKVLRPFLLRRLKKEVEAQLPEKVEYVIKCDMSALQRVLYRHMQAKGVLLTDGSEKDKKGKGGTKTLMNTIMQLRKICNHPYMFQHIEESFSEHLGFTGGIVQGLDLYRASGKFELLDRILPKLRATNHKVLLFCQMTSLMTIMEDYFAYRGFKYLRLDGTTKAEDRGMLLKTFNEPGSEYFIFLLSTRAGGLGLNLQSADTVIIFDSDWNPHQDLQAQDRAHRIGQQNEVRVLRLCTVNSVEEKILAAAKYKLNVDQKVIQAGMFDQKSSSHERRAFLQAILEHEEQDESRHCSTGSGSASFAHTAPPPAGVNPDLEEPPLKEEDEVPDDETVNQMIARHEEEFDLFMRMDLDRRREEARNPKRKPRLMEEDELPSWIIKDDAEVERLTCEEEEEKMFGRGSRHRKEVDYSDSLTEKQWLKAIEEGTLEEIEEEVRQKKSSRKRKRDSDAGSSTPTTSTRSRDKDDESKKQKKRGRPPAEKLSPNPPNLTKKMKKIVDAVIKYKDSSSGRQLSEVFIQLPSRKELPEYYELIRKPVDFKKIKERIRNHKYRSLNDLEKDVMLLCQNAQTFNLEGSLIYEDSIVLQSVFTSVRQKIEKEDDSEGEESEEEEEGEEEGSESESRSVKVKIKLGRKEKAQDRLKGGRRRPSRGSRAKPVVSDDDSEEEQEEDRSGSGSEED

Regarding `Nc1nnc(-c2ccccc2O)cc1N1CCN(CC(=O)NCCCCCCCCNc2ccc3c(c2)C(=O)N(C2CCC(=O)NC2=O)C3=O)CC1` (stereo not shown) [Compound 83, 2-[4-[3-amino-6-(2-hydroxyphenyl)pyridazin-4-yl]piperazin-1-yl]-N-(8-[[2-(2,6-dioxopiperidin-3-yl)-1,3-dioxoisoindol-5-yl]amino]octyl)acetamide], on HiBit-BRG1, the DC50 was > 1000 nM and the Dmax is < 50%. At HiBiT-BRM, the “BRM HiBit Degradation Maximum (%)” value was “B (“B” indicates maximum degradation ≥50%)” and the DC50 was > 100 nM.

`CN(CCCCCOc1ccc2c(c1)C(=O)N(C1CCC(=O)NC1=O)C2=O)Cc1ccc(CCOc2cc(-c3ccccc3O)nnc2N)cc1` (stereo not shown) [Compound 148, 5-((5-((4-(2-((3-amino-6-(2-hydroxyphenyl)pyridazin-4-yl)oxy)ethyl)benzyl)(methyl)amino)pentyl)oxy)-2-(2,6-dioxopiperidin-3-yl)isoindoline-1,3-dioneformate]: on HiBit-BRG1, the DC50 is > 1000 nM and the Dmax is < 50%. In addition, at HiBiT-BRM, the “BRM HiBit Degradation Maximum (%)” value is on record as “C (“C” indicates maximum degradation <50%)” and the DC50 was > 1000 nM.

Take `Cc1ncsc1-c1ccc(CNC(=O)[C@@H]2C[C@@H](O)CN2C(=O)[C@@H](NC(=O)COCCOCC(=O)NCc2ccc(CCOc3cc(-c4ccccc4O)nnc3N)cc2)C(C)(C)C)cc1` [Compound 164, (2S,4R)-1-((S)-1-(4-(2-((3-amino-6-(2-hydroxyphenyl)pyridazin-4-yl)oxy)ethyl)phenyl)-12-(tert-butyl)-3,10-dioxo-5,8-dioxa-2,11-diazatridecan-13-oyl)-4-hydroxy-N-(4-(4-methylthiazol-5-yl)benzyl)pyrrolidine-2-carboxamide]: on HiBit-BRG1, the DC50 was > 1000 nM and the Dmax is < 50%. Further, on HiBiT-BRM, the “BRM HiBit Degradation Maximum (%)” value is on record as “B (“B” indicates maximum degradation ≥50%)” and the DC50 was > 1000 nM.

As for `Cc1ncsc1-c1ccc(CNC(=O)[C@@H]2C[C@@H](O)CN2C(=O)[C@@H](NC(=O)CCCN2CCN(CCOc3cc(N4[C@@H]5CC[C@H]4CN(c4cc(-c6ccccc6O)nnc4N)C5)ccn3)CC2)C(C)(C)C)cc1` [Compound 242, (2S,4R)-1-((2S)-2-(4-(4-(2-((4-(3-(3-amino-6-(2-hydroxyphenyl)pyridazin-4-yl)-3,8-diazabicyclo[3.2.1]octan-8-yl)pyridin-2-yl)oxy)ethyl)piperazin-1-yl)butanamido)-3,3-dimethylbutanoyl)-4-hydroxy-N-(4-(4-methylthiazol-5-yl)benzyl)pyrrolidine-2-carboxamide], at HiBit-BRG1, the DC50 was > 1000 nM and the Dmax was < 50%. Also, on HiBiT-BRM, the “BRM HiBit Degradation Maximum (%)” value is “A (“A” indicates maximum degradation ≥75%)” and the DC50 was > 100 nM.

As for `Nc1nnc(-c2ccccc2O)cc1OCCc1ccc(C(=O)NCCCCCCCC(=O)NCc2ccc(S(=O)(=O)Nc3cccc4c(Cl)c[nH]c34)cc2)cc1` [Compound 25, 8-[[4-(2-[[3-amino-6-(2-hydroxyphenyl)pyridazin-4-yl]oxy]ethyl)phenyl]formamido]-N-([4-[(3-chloro-1H-indol-7-yl)sulfamoyl]phenyl]methyl)octanamide], at HiBit-BRG1, the DC50 was > 1000 nM and the Dmax was < 50%. Moreover, at HiBiT-BRM, the “BRM HiBit Degradation Maximum (%)” value is “C (“C” indicates maximum degradation <50%)” and the DC50 is > 1000 nM.

On to `Cc1ncsc1-c1ccc([C@H](C)NC(=O)[C@@H]2C[C@@H](O)CN2C(=O)[C@@H](NC(=O)CCNCCCCCCCCCCC(=O)NCc2ccc(CCOc3cc(-c4ccccc4O)nnc3N)cc2)C(C)(C)C)cc1` [Compound 256, (2S,4R)-1-((S)-2-(3-((11-((4-(2-((3-amino-6-(2-hydroxyphenyl)pyridazin-4-yl)oxy)ethyl)benzyl)amino)-11-oxoundecyl)amino)propanamido)-3,3-dimethylbutanoyl)-4-hydroxy-N-((S)-1-(4-(4-methylthiazol-5-yl)phenyl)ethyl)pyrrolidine-2-carboxamide], for which, on HiBit-BRG1, the DC50 was > 1000 nM and the Dmax was < 50%. On HiBiT-BRM, the “BRM HiBit Degradation Maximum (%)” value is given as “C (“C” indicates maximum degradation <50%)” and the DC50 is > 1000 nM.

As to `Nc1nnc(-c2ccccc2O)cc1OCCc1ccc(CNC(=O)CCCNc2cccc3nnn(C4CCC(=O)NC4=O)c(=O)c23)cc1` (stereo not shown) [Compound 106, N-(4-(2-((3-amino-6-(2-hydroxyphenyl)pyridazin-4-yl)oxy)ethyl)benzyl)-4-((3-(2,6-dioxopiperidin-3-yl)-4-oxo-3,4-dihydrobenzo[d][1,2,3]triazin-5-yl)amino)butanamide], at HiBit-BRG1, the DC50 was > 1000 nM and the Dmax is < 50%. In addition, on HiBiT-BRM, the “BRM HiBit Degradation Maximum (%)” value is listed as “C (“C” indicates maximum degradation <50%)” and the DC50 was > 1000 nM.

`Cc1ncsc1-c1ccc([C@H](C)NC(=O)[C@@H]2C[C@@H](O)CN2C(=O)[C@@H](NC(=O)CCCCCCCCCCN2C[C@@H]3CN(Cc4ccc(CCOc5cc(-c6ccccc6O)nnc5N)cc4)C[C@@H]3C2)C(C)(C)C)cc1` [Compound 264, (2S,4R)-1-((2S)-2-(11-(5-(4-(2-((3-amino-6-(2-hydroxyphenyl)pyridazin-4-yl)oxy)ethyl)benzyl)hexahydropyrrolo[3,4-c]pyrrol-2(1H)-yl)undecanamido)-3,3-dimethylbutanoyl)-4-hydroxy-N-((S)-1-(4-(4-methylthiazol-5-yl)phenyl)ethyl)pyrrolidine-2-carboxamide]: at HiBit-BRG1, the DC50 is > 100 nM and the Dmax was > 50%. In addition, on HiBiT-BRM, the “BRM HiBit Degradation Maximum (%)” value is listed as “A (“A” indicates maximum degradation ≥75%)” and the DC50 is > 10 nM.

As to `Cc1ncsc1-c1ccc(CNC(=O)[C@@H]2C[C@@H](O)CN2C(=O)[C@@H](NC(=O)CCCCCCCCCCCCCCC(=O)N(C)Cc2ccc(CCOc3cc(-c4ccccc4O)nnc3N)cc2)C(C)(C)C)cc1` [Compound 223, N1-(4-(2-((3-amino-6-(2-hydroxyphenyl)pyridazin-4-yl)oxy)ethyl)benzyl)-N16-((S)-1-((2S,4R)-4-hydroxy-2-((4-(4-methylthiazol-5-yl)benzyl)carbamoyl)pyrrolidin-1-yl)-3,3-dimethyl-1-oxobutan-2-yl)-N1-methylhexadecanediamide], on HiBit-BRG1, the DC50 was > 1000 nM and the Dmax is < 50%. On HiBiT-BRM, the “BRM HiBit Degradation Maximum (%)” value is given as “A (“A” indicates maximum degradation ≥75%)” and the DC50 is > 100 nM.

In the case of `CN(CCNC(=O)COc1cccc2c1C(=O)N(C1CCC(=O)NC1=O)C2=O)CCNC(=O)CN1CCN(c2cc(-c3ccccc3O)nnc2N)CC1` (stereo not shown) [Compound 104, N-(2-[[2-(2-[4-[3-amino-6-(2-hydroxyphenyl)pyridazin-4-yl]piperazin-1-yl]acetamido)ethyl](methyl)amino]ethyl)-2-[[2-(2,6-dioxopiperidin-3-yl)-1,3-dioxo-2,3-dihydro-1H-isoindol-4-yl]oxy]acetamide], on HiBit-BRG1, the DC50 was > 1000 nM and the Dmax was < 50%. Also, at HiBiT-BRM, the “BRM HiBit Degradation Maximum (%)” value is reported as “C (“C” indicates maximum degradation <50%)” and the DC50 was > 1000 nM.

As to `Nc1nnc(-c2ccccc2O)cc1OCCc1ccc(C(=O)NCCN2CCN(c3cccc4c3C(=O)N(C3CCC(=O)NC3=O)C4=O)CC2)cc1` (stereo not shown) [Compound 149, 4-(2-((3-amino-6-(2-hydroxyphenyl)pyridazin-4-yl)oxy)ethyl)-N-(2-(4-(2-(2,6-dioxopiperidin-3-yl)-1,3-dioxoisoindolin-4-yl)piperazin-1-yl)ethyl)benzamide], on HiBit-BRG1, the DC50 is > 100 nM and the Dmax is > 50%. For the same compound, at HiBiT-BRM, the “BRM HiBit Degradation Maximum (%)” value is listed as “A (“A” indicates maximum degradation ≥75%)” and the DC50 is > 100 nM.

Take `Nc1nnc(-c2ccccc2O)cc1OCCc1ccc(CN2CCN(CCOc3cccc4c3C(=O)N(C3CCC(=O)NC3=O)C4=O)CC2)cc1` (stereo not shown) [Compound 126, 4-[2-(4-[[4-(2-[[3-amino-6-(2-hydroxyphenyl)pyridazin-4-yl]oxy]ethyl)phenyl]methyl]piperazin-1-yl)ethoxy]-2-(2,6-dioxopiperidin-3-yl)isoindole-1,3-dione]: on HiBit-BRG1, the DC50 was > 1000 nM and the Dmax is < 50%. Moreover, at HiBiT-BRM, the “BRM HiBit Degradation Maximum (%)” value is given as “C (“C” indicates maximum degradation <50%)” and the DC50 is > 1000 nM.

As for `Nc1nnc(-c2ccccc2O)cc1OCCc1ccc(CNC(=O)CCCCCCCCCNc2ccc3c(c2)C(=O)N(C2CCC(=O)NC2=O)C3=O)cc1` (stereo not shown) [Compound 75, N-(4-(2-((3-amino-6-(2-hydroxyphenyl)pyridazin-4-yl)oxy)ethyl)benzyl)-10-((2-(2,6-dioxopiperidin-3-yl)-1,3-dioxoisoindolin-5-yl)amino)decanamide], the DC50 on HiBit-BRG1 is > 1000 nM. At HiBiT-BRM, the “BRM HiBit Degradation Maximum (%)” value was “C (“C” indicates maximum degradation <50%)” and the DC50 is > 1000 nM.

With `CN(CCNC(=O)COc1cccc2c1C(=O)N(C1CCC(=O)NC1=O)C2=O)CCNC(=O)c1ccc(CCOc2cc(-c3ccccc3O)nnc2N)cc1` (stereo not shown) [Compound 58, N-[2-[(2-[[4-(2-[[3-amino-6-(2-hydroxyphenyl)pyridazin-4-yl]oxy]ethyl)phenyl]formamido]ethyl)(methyl)amino]ethyl]-2-[[2-(2,6-dioxopiperidin-3-yl)-1,3-dioxoisoindol-4-yl]oxy]acetamide], at HiBit-BRG1, the DC50 was > 1000 nM and the Dmax was < 50%. Besides, at HiBiT-BRM, the “BRM HiBit Degradation Maximum (%)” value is reported as “C (“C” indicates maximum degradation <50%)” and the DC50 was > 1000 nM.
